Experimental data from patent US20120041195A1, “Heterocyclic compounds” (FOVEA PHARMACEUTICALS, priority 2009, published 2012).

Tests used:
[1] = Solubility in aqueous medium (buffer pH 5); format: physicochemical; conditions: acetic acid/KOH buffer pH 5, stirred 24 h at room temperature, HPLC/UV of supernatant
Experimental: Solubility of Compounds was determined in aqueous medium using the following procedure.
Two mg of Compound (2 mg) was added to 200 μl buffer (acetic acid/KOH) solution at pH 5. Solution was then stirred for 24 h at room temperature and then centrifuged 10 min at 16,000 rpm. Corresponding supernatants were analyzed by HPLC and UV detection. Calculation of a given Compound concentration was performed by reporting area under the experimental slope onto a calibration slope obtained separately using DMSO-solubilised Compound at different concentrations.

Colour of compound = format: physicochemical
[2] = system: VEGF-induced blood-retinal barrier breakdown; experiment: Inhibition of vascular leakage in a rat model of blood-retinal barrier breakdown; format: in vivo; conditions: intravitreal VEGF164 100 ng, 0.58% (5.8 mg/ml buffer pH 5) topical 10 μl six times over 27 h, Evans blue in retina
Experimental: We investigated the efficacy of topical administration of compound 5 of the invention in reducing the retinal leakage in a VEGF-induced blood-retinal barrier breakdown in the rat. Rats were treated by a single intravitreal injection of 5 μl (100 ng) recombinant rat VEGF164 (RD systems) into each eye.
During twenty-seven hours following VEGF injection, 0.58% test compound 5 of the invention (5.8 mg/ml buffer pH 5) and control without compound of the invention were administered six times by topical administration (10 μl) in eyes of sixteen rats.
Twenty-seven hours after the VEGF challenge, Evans blue dye (45 mg/kg) was injected intravenously and the dye was allowed to circulate during two hours.
Then, each rat was infused with 0.05M citrate buffer pH 3.5 (37° C.) for 2 minutes to allow clearance of the dye. Immediately after said perfusion, both eyes were enucleated and Evans blue dye was extracted by incubating each retina in formamide (Qaum et al Invest. Ophthalmol. Vis. Sci. 2001, Vol 42, No 10). Afterward, the absorbance was measured with a spectrophotometer at 620 nm.
Breakdown of the blood-retinal barrier was proportional to the concentration of Evans blue in the retina normalized by Evans blue concentrations in the plasma.

| Structure (SMILES) | Soiubility (pH 5) in mg/ml [1] | Solubility (pH 5) in % [1] | Colour (Colour of compound) | reduction of vascular leakage compared to control [2] |
| --- | --- | --- | --- | --- |
| Oc1ccc(Cl)c(-c2ccc3nc(Nc4cccc(OCCN5CCCC5)c4)nn3c2)c1 [compound 16, 4-Chloro-3-{2-[3-(2-pyrrolidin-1-yl-ethoxy)-phenylamino]-[1,2,4]triazolo[1,5-a]pyridin-6-yl}-phenol] | 0.1 mg/ml | 0.01% | Colourless |  |
| Cl.Oc1ccc(Cl)c(-c2ccn3nc(Nc4ccc(OCCN5CCCC5)cc4)nc3c2)c1 [compound 10, 4-Chloro-3-{2-[4-(2-pyrrolidin-1-yl-ethoxy)-phenylamino]-[1,2,4]triazolo[1,5-a]pyridin-7-yl}-phenol, hydrochloride] | 2 mg/ml | 0.2% | Colourless |  |
| CN(C)[C@@H]1CCN(C(=O)COc2ccc(Nc3nc4ccc(-c5cc(O)ccc5Cl)cn4n3)cc2)C1.Cl [compound 6, 2-{4-[6-(2-Chloro-5-hydroxy-phenyl)-[1,2,4]triazolo[1,5-a]pyridin-2-ylamino]-phenoxy}-1-((R)-3-dimethylamino-pyrrolidin-1-yl)-ethanone, hydrochloride] | 0.9 mg/ml | 0.1% | Colourless |  |
| Cl.Oc1ccc(Cl)c(-c2ccc3nc(Nc4ccc(OCCN5CCCC5)cc4)nn3c2)c1 [compound 5, 4-Chloro-3-{2-[4-(2-pyrrolidin-1-yl-ethoxy)-phenylamino]-[1,2,4]triazolo[1,5-a]pyridin-6-yl}-phenol, hydrochloride] | 5.4 mg/ml | 0.3% | Colourless | 71% |
| O=C1N(CCN2CCCC2)CCN1c1ccc(Nc2nc3ccc(-c4cc(O)ccc4Cl)cn3n2)cc1 [compound 7, 1-{4-[6-(2-Chloro-5-hydroxy-phenyl)-[1,2,4]triazolo[1,5-a]pyridin-2-ylamino]-phenyl}-3-(2-pyrrolidin-1-yl-ethyl)-imidazolidin-2-one] | 0.22 mg/ml | 0.022% | Colourless |  |
| CN(C)CCOc1cccc(Nc2nc3ccc(-c4cc(O)ccc4Cl)cn3n2)c1 [compound 15, 4-Chloro-3-{2-[3-(2-dimethylamino-ethoxy)-phenylamino]-[1,2,4]triazolo[1,5-a]pyridin-6-yl}-phenol] | 0.7 mg/ml | 0.07% | Colourless |  |
| Oc1ccc(Cl)c(-c2ccc3nc(Nc4cccc(OCCN5CCOCC5)c4)nn3c2)c1 [compound 12, 4-Chloro-3-{2-[3-(2-morpholin-4-yl-ethoxy)-phenylamino]-[1,2,4]triazolo[1,5-a]pyridin-6-yl}-phenol] | 0.2 mg/ml | 0.02% | Colourless |  |
| Cc1cc(-c2cc(O)ccc2Cl)cn2nc(Nc3ccc(OCCN4CCCC4)cc3)nc12.Cl [compound 9, 4-Chloro-3-{8-methyl-2-[4-(2-pyrrolidin-1-yl-ethoxy)-phenylamino]-[1,2,4]triazolo[1,5-a]pyridin-6-yl}-phenol, hydrochloride] | 1 mg/ml | 0.1% | Colourless |  |
| CN(C)CCOc1ccc(Nc2nc3ccc(-c4cc(O)ccc4Cl)cn3n2)cc1 [compound 14, 4-Chloro-3-{2-[4-(2-dimethylamino-ethoxy)-phenylamino]-[1,2,4]triazolo[1,5-a]pyridin-6-yl}-phenol] | >10 mg/ml | >1% | Colourless |  |
